Data on two compounds can be found in ChEMBL document CHEMBL5303765, “Data for DCP probe BAY-7081” (2023).

Test [1] addresses cGMP-specific 3',5'-cyclic phosphodiesterase (Homo sapiens, UniProt O76074). Put plainly: 3H-cAMP and 3H-cGMP Scintillation Proximity Assay (PDE5A).
The target of test [2] is Polyunsaturated fatty acid lipoxygenase ALOX15 (Homo sapiens) (UniProt P16050). The experiment in a line: Lipoxygenase 15-LO Eurofins Panlabs panel. The settings on record: Compound concentration 10.0 uM.
For test [3], the target named is Glutamate receptor ionotropic, AMPA (Rattus norvegicus) (UniProt P19491+P19492+P19493+P19490). The experiment in a line: Glutamate, AMPA Eurofins Panlabs panel. The class given is protein-complex assay. The settings on record: Compound concentration 10.0 uM.
For test [4], the target named is Prostaglandin F2-alpha receptor (Homo sapiens) (UniProt P43088). The experiment in a line: Prostanoid FP Eurofins Panlabs panel. The settings on record: Compound concentration 10.0 uM.
Test [5] deals with Sigma non-opioid intracellular receptor 1 (Homo sapiens) (UniProt Q99720). The experiment in a line: Sigma1 Eurofins Panlabs panel. To be noted: Compound concentration 10.0 uM.
For test [6], the target named is Aurora kinase B (Homo sapiens) (UniProt Q96GD4). Put plainly: AURKB SGC Tm panel (DSF). The settings on record: for ΔTm: Compound concentration 10.0 uM.
Test [7] concerns the target Dual specificity tyrosine-phosphorylation-regulated kinase 1A (Homo sapiens) (UniProt Q13627). Put plainly: DYRK1A SGC Tm panel (DSF). The settings on record: for ΔTm: Compound concentration 10.0 uM.
Test [8] addresses Mitogen-activated protein kinase 14 (Homo sapiens) (UniProt Q16539). The experiment in a line: MAPK14 SGC Tm panel (DSF). The settings on record: for ΔTm: Compound concentration 10.0 uM.
For test [9], the target named is T1, Mitogen-activated protein kinase 15 (Homo sapiens) (UniProt Q8TD08).
T1 sequence (whole entry): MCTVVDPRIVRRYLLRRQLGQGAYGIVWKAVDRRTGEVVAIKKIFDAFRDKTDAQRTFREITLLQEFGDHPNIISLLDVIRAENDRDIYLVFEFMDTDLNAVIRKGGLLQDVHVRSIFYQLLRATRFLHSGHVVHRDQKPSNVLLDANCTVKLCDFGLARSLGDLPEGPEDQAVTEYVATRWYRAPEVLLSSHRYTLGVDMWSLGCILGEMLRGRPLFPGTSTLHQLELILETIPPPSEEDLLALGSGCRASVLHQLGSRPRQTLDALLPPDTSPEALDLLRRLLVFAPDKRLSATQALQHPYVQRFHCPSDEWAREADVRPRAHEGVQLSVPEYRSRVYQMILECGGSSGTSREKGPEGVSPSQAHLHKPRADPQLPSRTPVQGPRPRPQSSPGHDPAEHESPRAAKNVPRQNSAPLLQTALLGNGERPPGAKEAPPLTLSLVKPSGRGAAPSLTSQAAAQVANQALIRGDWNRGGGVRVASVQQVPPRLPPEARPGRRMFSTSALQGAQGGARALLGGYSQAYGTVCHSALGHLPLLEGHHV
Put plainly: MAPK15 SGC Tm panel (DSF). To be noted: for ΔTm: Compound concentration 10.0 uM.

Test [10] deals with Mitogen-activated protein kinase 9 (Homo sapiens) (UniProt P45984). The experiment in a line: MAPK9 SGC Tm panel (DSF). To be noted: for ΔTm: Compound concentration 10.0 uM.
Test [11] deals with Cyclin-dependent kinase 16 (Homo sapiens) (UniProt Q00536). Put plainly: PCTK1 SGC Tm panel (DSF). The settings on record: for ΔTm: Compound concentration 10.0 uM.
The target of test [12] is T2, Membrane-associated tyrosine- and threonine-specific cdc2-inhibitory kinase (Homo sapiens) (UniProt Q99640).
T2 sequence (whole entry): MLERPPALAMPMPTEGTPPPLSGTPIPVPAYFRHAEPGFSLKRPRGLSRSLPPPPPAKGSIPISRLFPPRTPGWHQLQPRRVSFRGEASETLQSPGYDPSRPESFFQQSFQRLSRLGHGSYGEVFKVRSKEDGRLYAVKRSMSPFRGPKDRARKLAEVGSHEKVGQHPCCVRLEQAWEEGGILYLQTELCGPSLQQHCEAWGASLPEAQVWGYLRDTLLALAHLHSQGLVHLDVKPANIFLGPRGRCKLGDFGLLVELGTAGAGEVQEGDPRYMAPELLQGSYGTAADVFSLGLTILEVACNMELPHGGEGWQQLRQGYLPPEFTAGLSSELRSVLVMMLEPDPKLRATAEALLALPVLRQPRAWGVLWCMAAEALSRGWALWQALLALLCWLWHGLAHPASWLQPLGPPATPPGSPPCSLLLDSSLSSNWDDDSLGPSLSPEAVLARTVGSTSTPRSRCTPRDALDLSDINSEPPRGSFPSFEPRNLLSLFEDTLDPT
The experiment in a line: PKMYT1 SGC Tm panel (DSF). The settings on record: for ΔTm: Compound concentration 10.0 uM.

For test [13], the target named is Serine/threonine-protein kinase 10 (Homo sapiens) (UniProt O94804). Put plainly: STK10 SGC Tm panel (DSF). To be noted: for ΔTm: Compound concentration 10.0 uM.
The target of test [14] is T3, Serine/threonine-protein kinase 17B (Homo sapiens) (UniProt O94768).
T3 sequence (whole entry): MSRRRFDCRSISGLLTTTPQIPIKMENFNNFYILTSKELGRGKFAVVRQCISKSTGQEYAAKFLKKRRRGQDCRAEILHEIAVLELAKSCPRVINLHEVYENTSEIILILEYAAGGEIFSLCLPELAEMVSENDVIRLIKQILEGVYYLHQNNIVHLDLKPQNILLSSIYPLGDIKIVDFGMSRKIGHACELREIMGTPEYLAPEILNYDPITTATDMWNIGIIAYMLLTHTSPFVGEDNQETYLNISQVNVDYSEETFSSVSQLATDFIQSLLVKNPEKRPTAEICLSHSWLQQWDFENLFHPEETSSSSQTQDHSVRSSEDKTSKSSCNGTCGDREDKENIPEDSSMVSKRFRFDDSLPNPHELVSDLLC
The experiment in a line: STK17B SGC Tm panel (DSF). The settings on record: for ΔTm: Compound concentration 10.0 uM.

Test [15] has as its target T4, 5-hydroxytryptamine receptor 1A (Homo sapiens) (UniProt P08908).
T4 sequence (whole entry): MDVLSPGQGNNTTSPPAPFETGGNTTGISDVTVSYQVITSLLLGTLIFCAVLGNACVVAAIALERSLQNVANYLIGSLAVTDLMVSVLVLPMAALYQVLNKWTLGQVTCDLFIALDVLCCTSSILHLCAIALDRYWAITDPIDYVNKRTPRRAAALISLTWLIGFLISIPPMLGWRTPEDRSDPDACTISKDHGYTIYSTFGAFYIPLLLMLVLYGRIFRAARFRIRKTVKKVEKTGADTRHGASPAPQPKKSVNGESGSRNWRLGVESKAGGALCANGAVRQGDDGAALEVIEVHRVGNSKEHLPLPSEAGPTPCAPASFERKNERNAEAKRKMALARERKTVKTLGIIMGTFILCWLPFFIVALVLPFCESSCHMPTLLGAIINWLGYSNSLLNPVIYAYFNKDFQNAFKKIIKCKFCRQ
To be noted: Compound concentration 10.0 uM.

For test [16], the target named is Sodium-dependent dopamine transporter (Homo sapiens) (UniProt Q01959). The settings on record: Compound concentration 10.0 uM.
Test [17] concerns the target Histamine H4 receptor (Homo sapiens) (UniProt Q9H3N8). To be noted: Compound concentration 10.0 uM.
Test [18] addresses 3',5'-cyclic-AMP phosphodiesterase 4C (Homo sapiens) (UniProt Q08493). Put plainly: Panlabs assay PDE4C1. Further details: compound concentration 10 uM; call rule not given here. To be noted: at 10 µM.

Each structure is given as a SMILES string.

Sodium-dependent dopamine transporter (Homo sapiens), sequence (Q01959 whole entry): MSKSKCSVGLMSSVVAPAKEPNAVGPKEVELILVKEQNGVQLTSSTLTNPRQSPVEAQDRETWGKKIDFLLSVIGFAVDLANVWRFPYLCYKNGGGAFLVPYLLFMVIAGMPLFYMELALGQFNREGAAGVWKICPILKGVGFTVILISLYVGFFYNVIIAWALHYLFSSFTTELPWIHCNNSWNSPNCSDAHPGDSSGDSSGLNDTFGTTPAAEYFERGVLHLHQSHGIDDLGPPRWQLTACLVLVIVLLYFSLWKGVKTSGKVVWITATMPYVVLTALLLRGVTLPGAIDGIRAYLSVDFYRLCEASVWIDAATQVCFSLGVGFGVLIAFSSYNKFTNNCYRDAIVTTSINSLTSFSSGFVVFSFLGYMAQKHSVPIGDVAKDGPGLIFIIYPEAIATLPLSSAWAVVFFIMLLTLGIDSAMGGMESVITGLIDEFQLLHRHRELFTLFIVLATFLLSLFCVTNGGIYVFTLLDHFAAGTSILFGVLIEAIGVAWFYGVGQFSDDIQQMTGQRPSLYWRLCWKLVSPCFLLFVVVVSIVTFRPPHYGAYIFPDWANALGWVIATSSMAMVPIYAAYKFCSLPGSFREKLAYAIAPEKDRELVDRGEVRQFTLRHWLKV
Mitogen-activated protein kinase 14 (Homo sapiens), sequence (Q16539 whole entry): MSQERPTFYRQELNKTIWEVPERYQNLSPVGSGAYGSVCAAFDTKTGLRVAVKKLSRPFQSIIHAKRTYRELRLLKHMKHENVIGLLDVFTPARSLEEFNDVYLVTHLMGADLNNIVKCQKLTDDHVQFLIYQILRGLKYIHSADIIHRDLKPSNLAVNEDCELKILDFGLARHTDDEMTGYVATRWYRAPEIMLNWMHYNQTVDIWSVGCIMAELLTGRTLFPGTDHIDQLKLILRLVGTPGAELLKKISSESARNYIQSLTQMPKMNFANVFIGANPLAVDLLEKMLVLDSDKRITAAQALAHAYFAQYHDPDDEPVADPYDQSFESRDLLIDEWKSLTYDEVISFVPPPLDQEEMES
Histamine H4 receptor (Homo sapiens), sequence (Q9H3N8 whole entry): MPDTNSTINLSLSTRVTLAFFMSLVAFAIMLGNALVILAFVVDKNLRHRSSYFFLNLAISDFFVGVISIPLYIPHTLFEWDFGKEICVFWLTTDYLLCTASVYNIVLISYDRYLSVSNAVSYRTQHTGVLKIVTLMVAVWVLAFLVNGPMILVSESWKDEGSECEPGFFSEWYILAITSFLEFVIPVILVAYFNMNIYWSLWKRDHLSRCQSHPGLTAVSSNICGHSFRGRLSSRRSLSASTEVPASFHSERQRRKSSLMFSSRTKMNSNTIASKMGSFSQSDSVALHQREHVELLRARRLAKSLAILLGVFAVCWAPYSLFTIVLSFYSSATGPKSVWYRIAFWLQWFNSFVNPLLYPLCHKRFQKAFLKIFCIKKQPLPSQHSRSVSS
Mitogen-activated protein kinase 9 (Homo sapiens), sequence (P45984 whole entry, looked up): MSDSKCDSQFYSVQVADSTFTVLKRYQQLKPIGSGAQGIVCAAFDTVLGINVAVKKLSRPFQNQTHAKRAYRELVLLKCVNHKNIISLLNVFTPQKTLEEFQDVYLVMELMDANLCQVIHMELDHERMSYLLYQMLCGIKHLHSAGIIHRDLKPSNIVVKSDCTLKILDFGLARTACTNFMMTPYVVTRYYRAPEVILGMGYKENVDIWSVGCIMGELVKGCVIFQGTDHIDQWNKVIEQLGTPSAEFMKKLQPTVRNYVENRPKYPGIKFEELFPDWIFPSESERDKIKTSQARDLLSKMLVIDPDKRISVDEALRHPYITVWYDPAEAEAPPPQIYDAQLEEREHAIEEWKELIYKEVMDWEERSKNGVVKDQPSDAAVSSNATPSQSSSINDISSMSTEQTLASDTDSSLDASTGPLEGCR
Aurora kinase B (Homo sapiens), sequence (Q96GD4 whole entry): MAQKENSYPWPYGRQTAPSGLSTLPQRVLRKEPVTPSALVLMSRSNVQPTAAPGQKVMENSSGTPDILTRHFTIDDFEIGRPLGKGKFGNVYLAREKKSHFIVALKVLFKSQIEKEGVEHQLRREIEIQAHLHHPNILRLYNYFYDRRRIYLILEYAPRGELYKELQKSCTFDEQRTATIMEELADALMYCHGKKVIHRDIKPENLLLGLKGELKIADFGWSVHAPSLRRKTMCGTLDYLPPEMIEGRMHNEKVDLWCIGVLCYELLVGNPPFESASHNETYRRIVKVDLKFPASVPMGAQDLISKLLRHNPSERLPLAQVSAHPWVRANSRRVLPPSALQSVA
Serine/threonine-protein kinase 10 (Homo sapiens), sequence (O94804 whole entry, looked up): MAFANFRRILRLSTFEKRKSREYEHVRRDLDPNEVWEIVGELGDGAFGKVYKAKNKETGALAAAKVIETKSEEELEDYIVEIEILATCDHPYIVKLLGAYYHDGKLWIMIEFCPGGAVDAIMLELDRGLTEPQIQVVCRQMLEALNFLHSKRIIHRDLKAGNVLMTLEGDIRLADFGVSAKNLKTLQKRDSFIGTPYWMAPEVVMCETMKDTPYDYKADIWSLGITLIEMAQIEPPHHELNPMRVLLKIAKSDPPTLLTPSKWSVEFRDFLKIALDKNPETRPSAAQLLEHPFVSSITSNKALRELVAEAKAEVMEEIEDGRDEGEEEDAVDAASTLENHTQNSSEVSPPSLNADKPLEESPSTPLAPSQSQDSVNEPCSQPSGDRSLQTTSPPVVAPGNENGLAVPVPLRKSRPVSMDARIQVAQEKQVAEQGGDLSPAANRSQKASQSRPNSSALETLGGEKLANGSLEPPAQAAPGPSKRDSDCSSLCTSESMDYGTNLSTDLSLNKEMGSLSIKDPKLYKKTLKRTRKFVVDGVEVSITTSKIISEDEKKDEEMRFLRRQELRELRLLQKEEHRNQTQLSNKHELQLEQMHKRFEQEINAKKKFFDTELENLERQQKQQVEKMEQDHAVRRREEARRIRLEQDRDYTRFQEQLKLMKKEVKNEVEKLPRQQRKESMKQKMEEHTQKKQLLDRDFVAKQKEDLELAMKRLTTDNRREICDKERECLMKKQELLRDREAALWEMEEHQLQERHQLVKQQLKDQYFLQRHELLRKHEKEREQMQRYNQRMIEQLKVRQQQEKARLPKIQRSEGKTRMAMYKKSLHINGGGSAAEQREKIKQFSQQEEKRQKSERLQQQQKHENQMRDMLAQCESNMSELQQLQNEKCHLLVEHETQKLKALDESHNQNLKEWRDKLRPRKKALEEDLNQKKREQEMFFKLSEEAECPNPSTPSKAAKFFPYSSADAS
Cyclin-dependent kinase 16 (Homo sapiens), sequence (Q00536 whole entry): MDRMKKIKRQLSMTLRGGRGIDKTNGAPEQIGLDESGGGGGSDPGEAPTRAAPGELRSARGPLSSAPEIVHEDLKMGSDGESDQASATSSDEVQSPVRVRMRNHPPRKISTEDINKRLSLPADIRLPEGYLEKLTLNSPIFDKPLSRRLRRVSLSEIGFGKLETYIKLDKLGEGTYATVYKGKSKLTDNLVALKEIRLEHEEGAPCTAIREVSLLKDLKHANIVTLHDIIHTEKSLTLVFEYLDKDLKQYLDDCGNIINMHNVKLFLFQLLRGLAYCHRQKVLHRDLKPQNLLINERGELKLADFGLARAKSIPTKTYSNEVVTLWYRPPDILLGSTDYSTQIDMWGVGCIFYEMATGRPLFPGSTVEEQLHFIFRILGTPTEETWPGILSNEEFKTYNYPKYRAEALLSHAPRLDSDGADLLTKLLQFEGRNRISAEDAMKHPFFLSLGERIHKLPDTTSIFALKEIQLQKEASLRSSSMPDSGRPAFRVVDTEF
Polyunsaturated fatty acid lipoxygenase ALOX15 (Homo sapiens), sequence (P16050 whole entry): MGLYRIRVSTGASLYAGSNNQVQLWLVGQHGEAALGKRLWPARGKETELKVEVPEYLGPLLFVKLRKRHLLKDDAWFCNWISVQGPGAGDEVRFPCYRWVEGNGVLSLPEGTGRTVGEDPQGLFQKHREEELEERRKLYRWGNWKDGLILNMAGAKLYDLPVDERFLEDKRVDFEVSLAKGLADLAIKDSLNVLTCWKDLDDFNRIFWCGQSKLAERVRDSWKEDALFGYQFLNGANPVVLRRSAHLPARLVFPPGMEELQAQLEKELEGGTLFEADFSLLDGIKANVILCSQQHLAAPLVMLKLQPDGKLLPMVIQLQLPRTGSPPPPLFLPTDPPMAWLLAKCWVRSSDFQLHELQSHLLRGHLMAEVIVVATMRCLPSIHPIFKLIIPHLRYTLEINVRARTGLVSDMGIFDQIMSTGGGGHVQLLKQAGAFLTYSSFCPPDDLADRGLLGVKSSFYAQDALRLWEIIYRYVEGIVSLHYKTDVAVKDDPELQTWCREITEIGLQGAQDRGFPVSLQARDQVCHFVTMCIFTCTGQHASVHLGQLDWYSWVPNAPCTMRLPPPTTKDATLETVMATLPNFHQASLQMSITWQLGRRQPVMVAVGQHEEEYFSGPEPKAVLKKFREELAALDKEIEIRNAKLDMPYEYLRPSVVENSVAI
3',5'-cyclic-AMP phosphodiesterase 4C (Homo sapiens), sequence (Q08493 whole entry): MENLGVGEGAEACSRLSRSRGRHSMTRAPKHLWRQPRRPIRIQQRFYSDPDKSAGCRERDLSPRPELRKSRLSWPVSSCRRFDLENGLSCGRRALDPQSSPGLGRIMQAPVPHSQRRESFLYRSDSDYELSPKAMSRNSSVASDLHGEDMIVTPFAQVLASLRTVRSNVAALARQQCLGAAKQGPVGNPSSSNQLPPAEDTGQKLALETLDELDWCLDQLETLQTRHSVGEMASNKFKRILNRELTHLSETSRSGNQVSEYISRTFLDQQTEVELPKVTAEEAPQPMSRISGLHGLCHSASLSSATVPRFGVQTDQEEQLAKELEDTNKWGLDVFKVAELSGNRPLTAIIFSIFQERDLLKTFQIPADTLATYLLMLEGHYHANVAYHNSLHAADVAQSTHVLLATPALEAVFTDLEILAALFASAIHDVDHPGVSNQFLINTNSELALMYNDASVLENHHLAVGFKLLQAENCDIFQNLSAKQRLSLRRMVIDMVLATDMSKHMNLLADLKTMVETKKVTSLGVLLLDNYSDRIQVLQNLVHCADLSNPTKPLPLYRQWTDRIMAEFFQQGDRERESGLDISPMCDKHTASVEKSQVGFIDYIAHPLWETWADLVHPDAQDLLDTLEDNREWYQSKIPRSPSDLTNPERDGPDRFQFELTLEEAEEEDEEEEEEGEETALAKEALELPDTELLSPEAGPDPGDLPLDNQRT

For `CCC[C@H]1CNCc2c1[nH]c(=O)c(C#N)c2N1CCC2(CC1)CC2`, the IC50 in test [1] is given as 2.98 µM (not active). The inhibition in [2] is -6%; in [3] it was -2%; in test [4], 13%; in test [5], -4%; in [15] it was 5.13%; in test [16] it was 3.42%. In addition, the inhibition in test [17] was 14.2%. Besides, the delta Tm Staurosporine positive control in test [6] worked out at 14.1; in test [7], 9.05; in [8], 0.178; in test [9] it was 16.4; in test [10] it was 3.03; in [11], 11.2. Moreover, the delta Tm Staurosporine positive control worked out at 0.0474 in [12], 22.2 in test [13] and 10.6 in test [14]. In addition, the ΔTm in test [6] was -0.229; in test [7] it was -0.256; in test [8] it was -0.473; in test [9] it was -0.258; in test [10], -0.605; in test [11] it was -0.418. Moreover, the ΔTm was -0.47 in test [12], -2.2 in [13] and -0.858 in test [14].
As to `CCC[C@@H]1CNCc2c1[nH]c(=O)c(C#N)c2N1CCC2(CC1)CC2`, the inhibition in [18] is 28.6%; in test [15], 8.63%; in [16], 7.47%; in [17] it was -8.1%. Moreover, the delta Tm Staurosporine positive control in [6] worked out at 14.1; in [7], 9.05; in [8], 0.178; in test [9] it was 16.4; in test [10], 3.03; in [11] it was 11.2. The delta Tm Staurosporine positive control was 0.0474 in [12], 22.2 in test [13] and 10.6 in [14]. The ΔTm in test [6] was -0.199; in test [7], 0.743; in [8], -0.46; in [9], 0.0332; in test [10] it was -0.0844; in test [11], -0.4. Further, the results for the ΔTm in test [12], in test [13] and in [14] were -0.384, -2.3 and -0.79, respectively.

In general, IC50 refers to the concentration that inhibits the measured activity by half. Read a low IC50 as inhibition by little substance. In general, inhibition refers to the change of the read-out against control, counted positive when it falls.
